{"source": "patent US20260102377A1", "about": "“COMPOSITIONS AND METHODS FOR TREATING MYASTHENIA GRAVIS” (priority 2022, published 2026)", "test_system": "EAMG rats", "test": "Grip strength test after single dose of Mestinon and CIC-1 inhibitor alone or in combination", "type": "in vivo, rat", "settings": "per oral, 45 minutes post dosing, 0.375 mg/kg Mestinon, 20 mg/kg NMD670 or both", "description": "To induce EAMG, 250 μL of emulsion of Complete Freund's Adjuvant, consisting of heat-inactivated Mycobacterium tuberculosis H37Ra in non-metabolizable oils, together with Phosphate-Buffered Saline (PBS) and 80 μg of the extracellular α-domain peptide fragment of the human nicotinic acetylcholine receptor (antigen) was injected subcutaneously in seven-week-old, anaesthetized Lewis rats. The disease-inducing antigen was supplied by the Hellenic Pasteur institute3. The emulsion was deposited at the tail base, left hindleg, and right foreleg. After injection, animals were allowed to recover and returned to their home cage maintained in ventilated racks under controlled temperature (20 to 22° C.) and humidity (˜55%) control, under a 12-h light/12-h dark cycle with food and water provided ad libitum. The animals had pathogen free status and the housing and changing system was designed to assure that the pathogen free status was preserved during the study. The EAMG rats were observed, weighed, and scored for MG symptoms weekly until symptoms of MG developed, whereafter animals were observed daily.\nIn EAMG animals with severe MG symptoms the effects of CIC-1 inhibitor and Mestinon (pyridostigmine) alone or in combination was assessed. […] The study was blinded to both the experimenter and during subsequent analysis. Animals were subjected to grip strength test before compound administration, as described above and then dosed per oral with either 0.375 mg/kg pyridostigmine bromide (Mestinon) (CAS-no 101-26-8), 20 mg/kg NMD670 or a combination of both pyridostigmine and NMD670. Grip strength was tested 45 minutes post dosing. […] The change in grip strengths was calculated for individual animals relative to the results obtained prior to administration of test article and then averaged.\nGrip strength was measured on a BIOSEB BIO-GT3 Grip strength meter (force transducer, S/N 180271). […] Care was taken to ensure that the force recorded reflected the grip strength of the rat and not the force of the pulls conducted by the operator. […]", "note": "Several values for one entry are separate records, joined by “and”; a condition that tells them apart may be missing. Equal entries are not always repeated."}
{"smiles": "CN(C)C(=O)Oc1ccc[n+](C)c1", "note": "[Mestinon, pyridostigmine bromide, reference compound]", "values": [{"measurement": "Increase in Pulled Force (%)", "result": "5±4% and 5.3 ± 3.8%"}]}
